± gives the expanded uncertainty stated by the source.
Conditions: Crystal 2; DSC

## O=[Si]=O [silicon dioxide]
  Triple point temperature: 848 ± 2 K

Source: the NIST ThermoML archive (doi:10.1016/j.jct.2018.01.019)
